# Measured values as given in patent US11208412B2 (DAEGU-GYEONGBUK MEDICAL INNOVATION FOUNDATION, priority 2017, dated 2021).
# How the values were obtained:
# Experiment in all cases: Kinase selectivity, DiscoverX scanMAX Kinase assay panel (% control)
# Format in all cases: binding
# [1] = biological target: T1, kinases of the scanMAX Kinase assay panel (Homo sapiens, UniProt Q8IW41); settings: MAPKAPK5; 1 uM
# T1 construct: purchased DiscoverX Co. (contract measurement) scanMAX Kinase assay panel
# T1 sequence (Q8IW41 1-473): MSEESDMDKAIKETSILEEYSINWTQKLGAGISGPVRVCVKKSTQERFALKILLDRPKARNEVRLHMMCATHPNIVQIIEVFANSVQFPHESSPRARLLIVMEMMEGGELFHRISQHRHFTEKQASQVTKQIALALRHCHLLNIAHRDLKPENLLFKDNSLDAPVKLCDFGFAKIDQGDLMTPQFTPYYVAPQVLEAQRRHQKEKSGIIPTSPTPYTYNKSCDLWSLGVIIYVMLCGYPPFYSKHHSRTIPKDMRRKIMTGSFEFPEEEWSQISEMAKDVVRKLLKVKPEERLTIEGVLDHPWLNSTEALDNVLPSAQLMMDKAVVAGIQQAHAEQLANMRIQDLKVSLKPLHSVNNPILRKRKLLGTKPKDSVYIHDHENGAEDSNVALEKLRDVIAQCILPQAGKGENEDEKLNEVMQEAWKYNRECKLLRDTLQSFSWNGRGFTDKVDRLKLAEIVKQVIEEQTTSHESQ
# Procedure, shortened: (§1)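 A 1 uM DMSO solution of compound was applied across the panel kinases, and results were expressed as % control relative to DMSO (100%) and a positive control (0%).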
# [2] = biological target: T2, kinases of the scanMAX Kinase assay panel (Homo sapiens, UniProt Q13976); settings: PRKG1; 1 uM
# T2 construct: purchased DiscoverX Co. (contract measurement) scanMAX Kinase assay panel
# T2 sequence (Q13976 1-671): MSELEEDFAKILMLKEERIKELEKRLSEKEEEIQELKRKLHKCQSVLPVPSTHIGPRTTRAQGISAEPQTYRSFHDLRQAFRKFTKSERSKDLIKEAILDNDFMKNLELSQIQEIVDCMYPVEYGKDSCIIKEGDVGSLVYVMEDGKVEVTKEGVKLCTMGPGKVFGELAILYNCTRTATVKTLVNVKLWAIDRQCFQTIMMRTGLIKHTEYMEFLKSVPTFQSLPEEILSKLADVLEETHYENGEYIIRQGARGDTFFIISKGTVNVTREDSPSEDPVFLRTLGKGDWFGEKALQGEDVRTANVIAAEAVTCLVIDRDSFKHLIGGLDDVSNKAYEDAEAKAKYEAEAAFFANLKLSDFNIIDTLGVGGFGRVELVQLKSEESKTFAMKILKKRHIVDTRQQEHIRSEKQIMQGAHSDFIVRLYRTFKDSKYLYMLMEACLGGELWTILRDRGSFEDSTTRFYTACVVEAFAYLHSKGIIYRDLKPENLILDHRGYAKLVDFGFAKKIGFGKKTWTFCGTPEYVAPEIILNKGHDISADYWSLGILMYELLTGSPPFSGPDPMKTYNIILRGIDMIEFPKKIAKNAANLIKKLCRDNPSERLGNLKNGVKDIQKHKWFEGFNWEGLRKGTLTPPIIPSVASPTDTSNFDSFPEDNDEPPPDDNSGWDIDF
# Procedure, shortened: as §1
# [3] = biological target: T3, kinases of the scanMAX Kinase assay panel (Homo sapiens, UniProt Q9HAZ1); settings: CLK4; 1 uM
# T3 construct: purchased DiscoverX Co. (contract measurement) scanMAX Kinase assay panel
# T3 sequence (Q9HAZ1 whole entry): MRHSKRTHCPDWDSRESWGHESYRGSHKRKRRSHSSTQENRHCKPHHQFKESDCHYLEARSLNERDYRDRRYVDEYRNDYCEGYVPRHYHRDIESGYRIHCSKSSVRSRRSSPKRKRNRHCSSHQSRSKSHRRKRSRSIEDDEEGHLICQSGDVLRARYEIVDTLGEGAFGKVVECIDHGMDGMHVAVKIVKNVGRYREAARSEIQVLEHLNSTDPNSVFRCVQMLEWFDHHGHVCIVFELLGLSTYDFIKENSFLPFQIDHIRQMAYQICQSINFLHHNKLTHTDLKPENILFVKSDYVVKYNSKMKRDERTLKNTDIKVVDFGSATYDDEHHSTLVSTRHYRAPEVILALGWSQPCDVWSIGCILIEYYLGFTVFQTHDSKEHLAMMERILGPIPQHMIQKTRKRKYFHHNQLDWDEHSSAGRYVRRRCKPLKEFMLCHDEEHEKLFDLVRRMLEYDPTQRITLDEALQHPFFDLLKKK
# Procedure, shortened: as §1
# [4] = biological target: T4, kinases of the scanMAX Kinase assay panel (Homo sapiens, UniProt Q15759); settings: p38-beta; 1 uM
# T4 construct: purchased DiscoverX Co. (contract measurement) scanMAX Kinase assay panel
# T4 sequence (Q15759 whole entry): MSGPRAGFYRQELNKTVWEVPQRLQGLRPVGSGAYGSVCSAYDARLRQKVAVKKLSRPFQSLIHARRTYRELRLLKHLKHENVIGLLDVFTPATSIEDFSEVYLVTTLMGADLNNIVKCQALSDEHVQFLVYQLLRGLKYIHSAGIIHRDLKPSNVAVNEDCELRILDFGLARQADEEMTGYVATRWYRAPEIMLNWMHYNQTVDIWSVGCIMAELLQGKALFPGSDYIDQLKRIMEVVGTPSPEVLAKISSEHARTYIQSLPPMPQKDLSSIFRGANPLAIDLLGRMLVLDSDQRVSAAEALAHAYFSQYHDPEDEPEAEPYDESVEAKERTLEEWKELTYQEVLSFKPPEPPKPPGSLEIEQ
# Procedure, shortened: as §1
# [5] = biological target: T5, kinases of the scanMAX Kinase assay panel (Homo sapiens, UniProt Q5VT25); settings: MRCKA; 1 uM
# T5 construct: purchased DiscoverX Co. (contract measurement) scanMAX Kinase assay panel
# Procedure, shortened: as §1
# [6] = biological target: T6, kinases of the scanMAX Kinase assay panel (Homo sapiens, UniProt Q86UX6); settings: kinase YANK3; 1 uM in DMSO
# T6 construct: purchased DiscoverX Co. (contract measurement) scanMAX Kinase assay panel
# T6 sequence (Q86UX6 whole entry): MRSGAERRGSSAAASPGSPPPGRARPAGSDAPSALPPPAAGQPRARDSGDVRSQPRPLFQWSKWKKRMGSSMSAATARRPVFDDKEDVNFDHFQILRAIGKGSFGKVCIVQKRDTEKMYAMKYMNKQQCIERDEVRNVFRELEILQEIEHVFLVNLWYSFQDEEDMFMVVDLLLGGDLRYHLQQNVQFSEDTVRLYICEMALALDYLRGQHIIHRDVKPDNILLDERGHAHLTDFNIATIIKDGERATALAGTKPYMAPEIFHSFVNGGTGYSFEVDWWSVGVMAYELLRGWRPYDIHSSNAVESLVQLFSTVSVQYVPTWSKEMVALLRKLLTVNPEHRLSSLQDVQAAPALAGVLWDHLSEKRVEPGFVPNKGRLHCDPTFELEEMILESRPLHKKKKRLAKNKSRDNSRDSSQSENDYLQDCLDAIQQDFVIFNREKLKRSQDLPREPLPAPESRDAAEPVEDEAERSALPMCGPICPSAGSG
# Procedure, shortened: as §1
# [7] = biological target: T7, kinases of the scanMAX Kinase assay panel (Homo sapiens, UniProt Q15831); settings: LKB1; 1 uM
# T7 construct: purchased DiscoverX Co. (contract measurement) scanMAX Kinase assay panel
# T7 sequence (Q15831 1-433): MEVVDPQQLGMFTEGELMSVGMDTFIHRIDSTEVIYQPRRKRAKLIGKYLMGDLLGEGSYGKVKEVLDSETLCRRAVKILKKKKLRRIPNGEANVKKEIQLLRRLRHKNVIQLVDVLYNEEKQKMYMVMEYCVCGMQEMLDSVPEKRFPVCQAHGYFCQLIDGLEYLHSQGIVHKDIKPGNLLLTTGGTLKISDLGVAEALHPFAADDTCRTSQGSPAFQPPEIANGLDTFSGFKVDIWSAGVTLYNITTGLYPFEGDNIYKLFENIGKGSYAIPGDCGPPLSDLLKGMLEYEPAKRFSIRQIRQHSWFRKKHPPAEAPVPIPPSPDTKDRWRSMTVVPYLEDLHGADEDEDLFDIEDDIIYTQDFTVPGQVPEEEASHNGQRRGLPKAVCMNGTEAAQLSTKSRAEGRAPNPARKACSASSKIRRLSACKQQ
# Procedure, shortened: as §1
# [8] = biological target: T8, kinases of the scanMAX Kinase assay panel (Homo sapiens, UniProt O94804); settings: LOK; 1 uM
# T8 construct: purchased DiscoverX Co. (contract measurement) scanMAX Kinase assay panel
# T8 sequence (O94804 whole entry): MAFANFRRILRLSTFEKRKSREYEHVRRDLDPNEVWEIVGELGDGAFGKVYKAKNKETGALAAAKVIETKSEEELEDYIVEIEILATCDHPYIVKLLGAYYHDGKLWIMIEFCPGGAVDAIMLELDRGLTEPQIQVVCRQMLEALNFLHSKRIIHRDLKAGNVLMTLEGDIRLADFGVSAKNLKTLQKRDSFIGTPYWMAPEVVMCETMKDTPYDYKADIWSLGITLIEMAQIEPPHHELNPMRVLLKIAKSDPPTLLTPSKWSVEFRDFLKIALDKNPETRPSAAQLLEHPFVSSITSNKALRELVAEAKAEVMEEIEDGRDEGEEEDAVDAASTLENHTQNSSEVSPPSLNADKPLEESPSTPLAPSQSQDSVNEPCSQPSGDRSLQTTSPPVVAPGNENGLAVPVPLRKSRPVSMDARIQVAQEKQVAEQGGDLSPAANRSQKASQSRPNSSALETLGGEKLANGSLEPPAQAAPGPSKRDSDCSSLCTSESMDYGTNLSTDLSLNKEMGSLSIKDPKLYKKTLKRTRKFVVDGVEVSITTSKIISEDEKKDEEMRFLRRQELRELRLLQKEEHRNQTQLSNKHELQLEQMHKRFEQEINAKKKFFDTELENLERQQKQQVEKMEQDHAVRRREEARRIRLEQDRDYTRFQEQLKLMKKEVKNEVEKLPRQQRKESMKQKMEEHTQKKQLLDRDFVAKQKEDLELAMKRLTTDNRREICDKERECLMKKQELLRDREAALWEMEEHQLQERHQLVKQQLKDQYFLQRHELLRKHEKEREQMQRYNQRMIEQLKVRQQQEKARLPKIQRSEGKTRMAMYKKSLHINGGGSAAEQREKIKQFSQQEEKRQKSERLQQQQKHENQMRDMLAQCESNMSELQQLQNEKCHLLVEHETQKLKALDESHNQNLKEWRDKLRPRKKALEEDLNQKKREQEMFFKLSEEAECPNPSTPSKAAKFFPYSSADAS
# Procedure, shortened: as §1
# [9] = biological target: T9, kinases of the scanMAX Kinase assay panel (Homo sapiens, UniProt Q07002); settings: PCTK3; 1 uM
# T9 construct: purchased DiscoverX Co. (contract measurement) scanMAX Kinase assay panel
# T9 sequence (Q07002 whole entry): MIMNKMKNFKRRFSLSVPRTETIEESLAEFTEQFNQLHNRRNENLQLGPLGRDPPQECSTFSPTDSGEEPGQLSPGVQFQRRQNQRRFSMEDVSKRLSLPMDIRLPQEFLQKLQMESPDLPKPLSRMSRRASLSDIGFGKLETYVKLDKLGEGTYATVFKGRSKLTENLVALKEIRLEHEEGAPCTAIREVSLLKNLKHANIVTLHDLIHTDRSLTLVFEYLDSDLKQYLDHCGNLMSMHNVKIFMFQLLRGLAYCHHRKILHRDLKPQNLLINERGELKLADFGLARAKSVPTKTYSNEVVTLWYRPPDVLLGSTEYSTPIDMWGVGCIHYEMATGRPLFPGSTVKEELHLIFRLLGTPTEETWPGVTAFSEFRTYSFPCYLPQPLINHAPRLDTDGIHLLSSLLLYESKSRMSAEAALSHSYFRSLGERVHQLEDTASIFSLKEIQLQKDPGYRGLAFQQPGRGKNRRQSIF
# Procedure, shortened: as §1
# [10] = biological target: T10, kinases of the scanMAX Kinase assay panel (Homo sapiens, UniProt Q9Y6R4); settings: MAP3K4; 1 uM
# T10 construct: purchased DiscoverX Co. (contract measurement) scanMAX Kinase assay panel
# T10 sequence (Q9Y6R4 whole entry): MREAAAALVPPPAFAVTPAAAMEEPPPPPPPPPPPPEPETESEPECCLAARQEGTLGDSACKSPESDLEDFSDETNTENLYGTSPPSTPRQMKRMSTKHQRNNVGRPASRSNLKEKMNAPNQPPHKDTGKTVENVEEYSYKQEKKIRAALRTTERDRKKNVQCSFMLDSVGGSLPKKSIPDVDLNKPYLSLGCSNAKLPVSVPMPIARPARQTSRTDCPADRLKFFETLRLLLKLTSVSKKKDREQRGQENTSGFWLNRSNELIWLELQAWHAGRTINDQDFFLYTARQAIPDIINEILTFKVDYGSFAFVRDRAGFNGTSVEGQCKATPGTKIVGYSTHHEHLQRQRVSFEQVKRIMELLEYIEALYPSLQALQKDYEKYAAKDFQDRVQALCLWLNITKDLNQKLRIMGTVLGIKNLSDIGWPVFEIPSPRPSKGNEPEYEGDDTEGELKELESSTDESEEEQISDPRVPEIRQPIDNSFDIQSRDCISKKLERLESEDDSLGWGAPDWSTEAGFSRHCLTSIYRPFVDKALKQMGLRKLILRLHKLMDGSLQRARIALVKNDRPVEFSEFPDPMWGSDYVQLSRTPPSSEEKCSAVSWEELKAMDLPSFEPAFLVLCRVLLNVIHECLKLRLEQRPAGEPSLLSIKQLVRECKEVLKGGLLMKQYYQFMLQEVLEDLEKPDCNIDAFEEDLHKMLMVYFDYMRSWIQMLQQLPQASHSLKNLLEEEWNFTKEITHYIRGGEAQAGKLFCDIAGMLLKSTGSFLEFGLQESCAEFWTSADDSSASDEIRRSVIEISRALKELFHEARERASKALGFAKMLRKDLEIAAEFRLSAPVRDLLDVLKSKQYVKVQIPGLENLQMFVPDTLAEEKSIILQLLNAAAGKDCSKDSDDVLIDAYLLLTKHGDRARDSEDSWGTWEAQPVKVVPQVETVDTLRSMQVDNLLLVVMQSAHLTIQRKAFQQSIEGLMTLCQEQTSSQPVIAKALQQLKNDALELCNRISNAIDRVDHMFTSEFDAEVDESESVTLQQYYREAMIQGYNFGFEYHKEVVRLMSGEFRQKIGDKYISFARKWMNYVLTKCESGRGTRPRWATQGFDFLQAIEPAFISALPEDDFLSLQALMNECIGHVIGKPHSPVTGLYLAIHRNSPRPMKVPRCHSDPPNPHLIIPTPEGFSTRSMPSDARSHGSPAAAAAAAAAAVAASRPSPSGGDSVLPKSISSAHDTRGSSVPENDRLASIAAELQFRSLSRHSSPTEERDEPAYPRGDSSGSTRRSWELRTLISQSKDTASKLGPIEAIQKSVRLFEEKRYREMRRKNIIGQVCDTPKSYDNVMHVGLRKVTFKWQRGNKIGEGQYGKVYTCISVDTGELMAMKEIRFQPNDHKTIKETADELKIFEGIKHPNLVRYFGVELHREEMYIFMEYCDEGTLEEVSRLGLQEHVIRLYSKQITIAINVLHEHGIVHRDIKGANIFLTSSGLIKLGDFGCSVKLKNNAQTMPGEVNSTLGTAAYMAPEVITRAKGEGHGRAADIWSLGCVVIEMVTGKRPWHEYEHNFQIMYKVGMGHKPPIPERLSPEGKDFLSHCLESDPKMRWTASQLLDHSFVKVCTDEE
# Procedure, shortened: as §1
# [11] = biological target: T11, kinases of the scanMAX Kinase assay panel (Homo sapiens, UniProt Q05655); settings: PRKCD; 1 uM
# T11 construct: purchased DiscoverX Co. (contract measurement) scanMAX Kinase assay panel
# T11 sequence (Q05655 whole entry): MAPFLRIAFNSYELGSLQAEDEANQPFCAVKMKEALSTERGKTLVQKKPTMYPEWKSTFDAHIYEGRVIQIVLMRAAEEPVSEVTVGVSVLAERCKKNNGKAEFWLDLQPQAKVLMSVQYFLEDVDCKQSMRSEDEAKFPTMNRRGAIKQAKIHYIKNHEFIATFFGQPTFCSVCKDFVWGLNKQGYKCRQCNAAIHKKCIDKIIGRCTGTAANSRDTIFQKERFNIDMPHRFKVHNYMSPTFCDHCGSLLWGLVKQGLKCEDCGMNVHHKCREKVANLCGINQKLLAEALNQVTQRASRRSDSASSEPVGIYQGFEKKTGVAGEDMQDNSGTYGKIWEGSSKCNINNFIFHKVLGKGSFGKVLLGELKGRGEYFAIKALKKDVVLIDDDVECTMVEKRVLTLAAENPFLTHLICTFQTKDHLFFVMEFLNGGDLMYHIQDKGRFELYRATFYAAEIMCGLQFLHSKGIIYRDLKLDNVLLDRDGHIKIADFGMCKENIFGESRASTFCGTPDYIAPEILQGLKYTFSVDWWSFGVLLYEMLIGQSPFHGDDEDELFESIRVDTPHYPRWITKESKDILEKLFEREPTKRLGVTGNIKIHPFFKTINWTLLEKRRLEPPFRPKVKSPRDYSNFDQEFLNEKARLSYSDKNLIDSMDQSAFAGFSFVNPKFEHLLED
# Procedure, shortened: as §1
Structure (SMILES),remaining binding at 1 µM [1] [%],remaining binding at 1 µM [2] [%],remaining binding at 1 µM [3] [%],remaining binding at 1 µM [4] [%],remaining binding at 1 µM [5] [%],remaining binding at 1 µM [6] [%],remaining binding at 1 µM [7] [%],remaining binding at 1 µM [8] [%],remaining binding at 1 µM [9] [%],remaining binding at 1 µM [10] [%],remaining binding at 1 µM [11] [%]
"CNc1nc(Nc2ccc(C(=O)N3CCOCC3)cc2OC)nc2[nH]cc(C#N)c12 [Example 1, 2-((2-methoxy-4-(morpholine-4-carbonyl)phenyl)amino)-4-(methylamino)-7H-pyrrolo[2,3-d]pyrimidine-5-carbonitrile]",16,83,3.4,98,100,100,91,95,96,100,100
"CC1(Nc2nc(Nc3cnn([C@H]4CCN(C5COC5)C[C@@H]4F)c3Cl)nc3[nH]cc(C#N)c23)CC1 [Example 52, 2-((5-chloro-1-((3S,4S)-3-fluoro-1-(oxetane-3-yl)piperidine-4-yl)-1H-pyrazole-4-yl)amino)((1-methylcyclopropyl)amino)-7H-pyrrolo[2,3-d]pyrimidine-5-carbonitrile]",72,79,1.4,92,100,100,31,74,81,77,81
"CCNc1nc(Nc2ccc(C(=O)N3CCC(N4CCOCC4)CC3)cc2OC)nc2[nH]cc(C(F)(F)F)c12 [Example 104, (4-((4-(ethylamino)-5-(trifluoromethyl)-7H-pyrrolo[2,3-d]pyrimidine-2-yl)amino)-3-methoxyphenyl)(4-morpholinopiperidine-1-yl)methanone]",51,84,4.1,100,100,65,87,100,94,97,100
